According to patent publication US20110092462A1, “USE OF HIGH-DOSE OXAZAPHOSPHORINE DRUGS FOR TREATING IMMUNE DISORDERS” (The Johns Hopkins University, priority 2005, published 2011):
Where two headings read alike, the source gives them in different places.

Experiments:
[1] = tested on: patients with moderate to severe systemic lupus erythematosus (SLE)
[2] = tested on: SAA patients; conditions: for mortality within 6 months after treatment / patients achieving remission: 38 newly diagnosed patients
Text: Response was defined as ANC >1000/d1 and transfusion independence without growth factor support for >3 months. Relapse was defined as no longer meeting criteria for response. Development of paroxysmal nocturnal hemoglobinuria was monitored by flow cytometry.
The median age of the newly diagnosed patients was 40 (range 2-68) years.

[3] = tested on: patients with severe refractory autoimmune disorders
[4] = tested on: SAA patients; conditions: 10 SAA patients
[5] = tested on: patients with HAA
Experimental: Serology/PCR for HAV, HBV, HCV, EBV, and CMV were negative. All patients met criteria for very severe aplastic anemia pretreatment: bone marrow cellularity <25%, ANC <200 μL, platelet count <20,000/μL, absolute reticulocyte count <60,000/μL. Infection prophylaxis consisted of trimethoprim/sulfamethoxazole, G-CSF, and fluconazole.

[6] = tested on: patients with myasthenia gravis; conditions: 7 patients refractory to conventional immunosuppressive therapy
[7] = tested on: patients with aggressive MS; conditions: eight patients
Experimental: Open-label trial of patients with aggressive MS were given an up-front regimen of 50 mg/kg/d for four consecutive days. Enrolled patients had aggressive MS as defined by 2 or more total gadolinium enhancing lesions on each of two pretreatment MRI scans; at least one clinical exacerbation in the last year despite being on conventional MS therapy; and sustained increase of >1.0 on the EDSS in the preceding year.
All patients developed transient severe neutropenia, an expected consequence, followed by immune reconstitution in 10-17 days.

[8] = tested on: patients with refractory autoimmune hemolytic anemia
Text: The median hemoglobin at the time of treatment was 6.7 (range; 5-10) g/dl and 8 of the 9 patients were dependent on erythrocyte transfusions.

[9] = tested on: patient with pemphigus vulgaris
[10] = tested on: HLA-specific antibodies in SAA patients
[11] = tested on: patient with paraneoplastic pemphigus
[12] = tested on: previously untreated SAA patients
[13] = after the last dose of cyclophosphamide
[14] = 50 mg/kg/d for four consecutive days

## O=P1(N(CCCl)CCCl)NCCCO1 (centres unmarked) [high-dose cyclophosphamide, cyclophosphamide]
[1]; 14 patients
  deaths or fungal infections: no deaths or fungal infections
  durable complete responses: 5
[1]; after the last dose, range 11 to 22 days, 14 patients
  median time to a neutrophil count of 500 μl: 14 days
[1]; p<0.0001
  improvement in Physicians Global Assessment, mean difference: 1.3
[1]; p=0.01
  improvement in prednisone dosage, mean difference: 12.8 mg
[1]; p=0.042
  improvement in systemic lupus erythematosus disease activity index, mean difference: 3.5
[1]; range 0 to 23
  median day to last platelet transfusion: 16 days
[1]; range 2 to 5
  median transfusions of packed red blood cells required: 2 transfusions
[2]; 12 patients with a PNH population
  PNH clone: regressing in all 12 patients
[2]; 12 patients with a PNH population 0.5-40% of granulocytes, p=0.039
  durable remission: all 12
[2]; 17 patients who failed immunosuppressive therapy
  patients in remission: nine
[2]; 18 months after treatment
  additional patient died from bacterial sepsis: 1 patient
[2]
  mortality within 6 months after treatment: 10.5%
[2]; 95% CI 58-85%
  patients achieving remission: 74%
[2]; all with vSAA
  mortality within 6 months after treatment: 4 patients
[2]; most complete
  patients achieving remission: 28 patients
[2]; SAA (not very severe) subgroup of 23
  patients in remission: 20 patients
[2]; eight patients with a severe infection at beginning of treatment
  patients surviving in remission: 5 patients
[2]; newly diagnosed patients
  median time to ANC of 500: 50 days
  median time to last platelet transfusion: 99 days
  median time to last red cell transfusion: 181 days
[2]; newly diagnosed series
  patients relapsed: Two patients
  progression to PNH or MDS: No patient
[2]; newly diagnosed, 95% CI 72-95%
  actuarial survival: 86%
[2]; newly diagnosed, median follow-up 41 (range 6-111) months
  patients surviving: 33/38
[2]; patients who failed immunosuppressive therapy
  patients alive: Ten of the 17
[2]; vSAA subgroup of 15
  patients in remission: 10 patients
[3]; [13]
  median time to a neutrophil count of 500 per μL: 17 days
  median time to platelet transfusion independence: 16 days
[3]; eight patients
  complete remission: five
  marked clinical improvement: Seven patients
  partial remission: 2
[4]
  complete remission (normocellular bone marrow, hemoglobin >13.0 g/dl, neutrophil count >[…]10^9/L, platelet count greater than 125×10^9/L): seven of ten
[5]; 4 patients with hematopoietic responses
  duration of remission after treatment without further immune suppression: up to 6 years
[5]; Patient 2
  autoimmune hepatitis (AIH) status: remains in remission
[5]; Patient 5, proceeded to unrelated BMT after 5 months
  hematologic response: no hematopoietic response
[5]; five patients, 50 mg/kg/day IV×4 days plus mesna
  hematopoietic recovery: Four patients
[5]; follow-up 1-6 years
  durable remissions in hepatitis-associated aplastic anemia: 4 of 5
[5]; range 44-369
  median time to ANC >500/μL: 51 days
[5]; range 48-679
  median time to transfusion independence for platelets: 160 days
[5]; range 57-679
  median time to transfusion independence for erythrocytes: 109 days
[5]; series of 5 patients
  death from treatment failure: one death
[6]
  markedly improved, and returned to full activity: All of these patients
[7]
  brain atrophy: slowed in several patients
  clinical exacerbation following treatment: No patient
  improvement in the MSFC following treatment: most patients
  reduction in EDSS following treatment: most patients
  reduction or elimination of new and enhancing lesions on the MRI: All patients
[7]; [14]
  time to immune reconstitution after neutropenia: 10 to 17 days
  transient severe neutropenia: All patients
  unexpected grade 3 or 4 adverse event: no patients
[8]; 9 patients
  complete remission (normal untransfused hemoglobin for age and sex): 6 patients
  median time to a neutrophil count of 500 per μL: 16 days
  median time to platelet transfusion independence: 15 days
  partial remission (hemoglobin >10.0 g/dl without support of transfusions): 3 patients
  responded and became transfusion independent: All patients
[8]; in vivo
  patients able to discontinue steroids: 7 of the 9
[8]; median follow-up of 15 (range 4-29) months
  relapses: no relapses
[9]; after treatment
  pathogenic autoantibodies specific for the disease: undetectable
[9]; in vivo
  remission: durable complete remissions
[9]; one patient
  began to recover neutrophils: ≤ 9 days
  need for red cell transfusions: did not require red cell transfusions
  platelet transfusions received: 2
[10]; after treatment
  marked reduction in anti-HLA antibody titer: All four responders
[10]; five patients with HLA-specific antibodies
  complete remission of the SAA: four of these five
[10]; of four responders
  anti-HLA antibody completely eradicated: three
[11]; after treatment
  pathogenic autoantibodies specific for the disease: undetectable
[11]; in vivo
  remission: durable complete remissions
[11]; one patient
  need for blood products: did not require blood products
  recovery to a neutrophil count of greater than 500 per μL: ≤ 15 days
[12]; 19 patients
  median time to a neutrophil count of 500 μL: 49 days
[12]; 19 patients, 95% CI 51-91%
  probability of achieving treatment-free remission: 73%
[12]; at 24 months, 19 patients, 95% CI 59-95%
  probability of survival: 84%
[12]; responding patients
  relapse or secondary clonal disorders: No responding patients
